Experiments:
Assay in all cases: Kinase profiling
Type in all cases: biochemical
IRE1(h) = molecular target: T1, IRE1(h) (Homo sapiens, UniProt O75460)
T1 construct: purchased Eurofins Cerep SA (KinaseProfiler)
Experimental: (§1) 380 kinases inhibitory activities of SKLB-D18 were conducted by Eurofins Cerep SA. The result was illustrated by kinase tree (http://www.kinhub.org/kinmap/).

STK32B(h) = molecular target: T2, STK32B(h) (Homo sapiens, UniProt Q9NY57)
T2 construct: purchased Eurofins Cerep SA (KinaseProfiler)
Experimental: as §1

CaMKK1(h) = molecular target: T3, CaMKK1(h) (Homo sapiens, UniProt Q8N5S9)
T3 construct: purchased Eurofins Cerep SA (KinaseProfiler)
Experimental: as §1

CDK9/cyclin T1(h) = molecular target: T4, CDK9/cyclin T1(h) (Homo sapiens, UniProt P50750)
T4 construct: purchased Eurofins Cerep SA (KinaseProfiler)
Experimental: as §1

TRB2(h) = molecular target: T5, TRB2(h) (Homo sapiens, UniProt Q92519)
T5 construct: purchased Eurofins Cerep SA (KinaseProfiler)
Experimental: as §1

CHK1(h) = molecular target: T6, CHK1(h) (Homo sapiens, UniProt O14757)
T6 construct: purchased Eurofins Cerep SA (KinaseProfiler)
Experimental: as §1

CDK6/cyclinD3(h) = molecular target: T7, CDK6/cyclinD3(h) (Homo sapiens, UniProt Q00534)
T7 construct: purchased Eurofins Cerep SA (KinaseProfiler)
Experimental: as §1

EphB2(h) = molecular target: T8, EphB2(h) (Homo sapiens, UniProt P29323)
T8 construct: purchased Eurofins Cerep SA (KinaseProfiler)
Experimental: as §1

TNIK(h) = molecular target: T9, TNIK(h) (Homo sapiens, UniProt Q9UKE5)
T9 construct: purchased Eurofins Cerep SA (KinaseProfiler)
Experimental: as §1

SGK(h) = molecular target: T10, SGK(h) (Homo sapiens, UniProt O00141)
T10 construct: purchased Eurofins Cerep SA (KinaseProfiler)
Experimental: as §1

CaMKI(h) = molecular target: T11, CaMKI(h) (Homo sapiens, UniProt Q14012)
T11 construct: purchased Eurofins Cerep SA (KinaseProfiler)
Experimental: as §1

MARK4(h) = molecular target: T12, MARK4(h) (Homo sapiens, UniProt Q96L34)
T12 construct: purchased Eurofins Cerep SA (KinaseProfiler)
Experimental: as §1

Blk(h) = molecular target: T13, Blk(h) (Homo sapiens, UniProt P51451)
T13 construct: purchased Eurofins Cerep SA (KinaseProfiler)
Experimental: as §1

ACK1(h) = molecular target: T14, ACK1(h) (Homo sapiens, UniProt Q07912)
T14 construct: purchased Eurofins Cerep SA (KinaseProfiler)
Experimental: as §1

PI3 Kinase (p120g)(h) = molecular target: T15, PI3 Kinase (p120g)(h) (Homo sapiens, UniProt P48736)
T15 construct: purchased Eurofins Cerep SA (KinaseProfiler)
Experimental: as §1

PI3KC2a(h) = molecular target: T16, PI3KC2a(h) (Homo sapiens, UniProt O00443)
T16 construct: purchased Eurofins Cerep SA (KinaseProfiler)
Experimental: as §1

WNK1(h) = molecular target: T17, WNK1(h) (Homo sapiens, UniProt Q9H4A3)
T17 construct: purchased Eurofins Cerep SA (KinaseProfiler)
Experimental: as §1

Rsk4(h) = molecular target: T18, Rsk4(h) (Homo sapiens, UniProt Q9UK32)
T18 construct: purchased Eurofins Cerep SA (KinaseProfiler)
Experimental: as §1

ErbB2(h) = molecular target: T19, ErbB2(h) (Homo sapiens, UniProt P04626)
T19 construct: purchased Eurofins Cerep SA (KinaseProfiler)
Experimental: as §1

PKAcβ(h) = molecular target: T20, PKAcβ(h) (Homo sapiens, UniProt P22694)
T20 construct: purchased Eurofins Cerep SA (KinaseProfiler)
Experimental: as §1

Aurora-C(h) = molecular target: T21, Aurora-C(h) (Homo sapiens, UniProt Q9UQB9)
T21 construct: purchased Eurofins Cerep SA (KinaseProfiler)
Experimental: as §1

DYRK1B(h) = molecular target: T22, DYRK1B(h) (Homo sapiens, UniProt Q9Y463)
T22 construct: purchased Eurofins Cerep SA (KinaseProfiler)
Experimental: as §1

MRCKγ(h) = molecular target: T23, MRCKγ(h) (Homo sapiens, UniProt Q6DT37)
T23 construct: purchased Eurofins Cerep SA (KinaseProfiler)
Experimental: as §1

IKKβ(h) = molecular target: T24, IKKβ(h) (Homo sapiens, UniProt O14920)
T24 construct: purchased Eurofins Cerep SA (KinaseProfiler)
Experimental: as §1

Rsk3(h) = molecular target: T25, Rsk3(h) (Homo sapiens, UniProt Q15349)
T25 construct: purchased Eurofins Cerep SA (KinaseProfiler)
Experimental: as §1

STK32A(h) = molecular target: T26, STK32A(h) (Homo sapiens, UniProt Q8WU08)
T26 construct: purchased Eurofins Cerep SA (KinaseProfiler)
Experimental: as §1

PKCβII(h) = molecular target: T27, PKCβII(h) (Homo sapiens, UniProt P05771)
T27 construct: purchased Eurofins Cerep SA (KinaseProfiler)
Experimental: as §1

NIM1(h) = molecular target: T28, NIM1(h) (Homo sapiens, UniProt Q8IY84)
T28 construct: purchased Eurofins Cerep SA (KinaseProfiler)
Experimental: as §1

IRAK4(h) = molecular target: T29, IRAK4(h) (Homo sapiens, UniProt Q9NWZ3)
T29 construct: purchased Eurofins Cerep SA (KinaseProfiler)
Experimental: as §1

ZAP-70(h) = molecular target: T30, ZAP-70(h) (Homo sapiens, UniProt P43403)
T30 construct: purchased Eurofins Cerep SA (KinaseProfiler)
Experimental: as §1

PKBα(h) = molecular target: T31, PKBα(h) (Homo sapiens, UniProt P31749)
T31 construct: purchased Eurofins Cerep SA (KinaseProfiler)
Experimental: as §1

FGFR2(h) = molecular target: T32, FGFR2(h) (Homo sapiens, UniProt P21802)
T32 construct: purchased Eurofins Cerep SA (KinaseProfiler)
Experimental: as §1

PRK1(h) = molecular target: T33, PRK1(h) (Homo sapiens, UniProt Q16512)
T33 construct: purchased Eurofins Cerep SA (KinaseProfiler)
Experimental: as §1

PrKX(h) = molecular target: T34, PrKX(h) (Homo sapiens, UniProt P51817)
T34 construct: purchased Eurofins Cerep SA (KinaseProfiler)
Experimental: as §1

NEK3(h) = molecular target: T35, NEK3(h) (Homo sapiens, UniProt P51956)
T35 construct: purchased Eurofins Cerep SA (KinaseProfiler)
Experimental: as §1

NEK9(h) = molecular target: T36, NEK9(h) (Homo sapiens, UniProt Q8TD19)
T36 construct: purchased Eurofins Cerep SA (KinaseProfiler)
Experimental: as §1

PDHK4(h) = molecular target: T37, PDHK4(h) (Homo sapiens, UniProt Q16654)
T37 construct: purchased Eurofins Cerep SA (KinaseProfiler)
Experimental: as §1

PAK6(h) = molecular target: T38, PAK6(h) (Homo sapiens, UniProt Q9NQU5)
T38 construct: purchased Eurofins Cerep SA (KinaseProfiler)
Experimental: as §1

DRAK1(h) = molecular target: T39, DRAK1(h) (Homo sapiens, UniProt Q9UEE5)
T39 construct: purchased Eurofins Cerep SA (KinaseProfiler)
Experimental: as §1

CK2α1(h) = molecular target: T40, CK2α1(h) (Homo sapiens, UniProt P68400)
T40 construct: purchased Eurofins Cerep SA (KinaseProfiler)
Experimental: as §1

Aurora-A(h) = molecular target: T41, Aurora-A(h) (Homo sapiens, UniProt O14965)
T41 construct: purchased Eurofins Cerep SA (KinaseProfiler)
Experimental: as §1

T7 sequence (Q00534 whole entry): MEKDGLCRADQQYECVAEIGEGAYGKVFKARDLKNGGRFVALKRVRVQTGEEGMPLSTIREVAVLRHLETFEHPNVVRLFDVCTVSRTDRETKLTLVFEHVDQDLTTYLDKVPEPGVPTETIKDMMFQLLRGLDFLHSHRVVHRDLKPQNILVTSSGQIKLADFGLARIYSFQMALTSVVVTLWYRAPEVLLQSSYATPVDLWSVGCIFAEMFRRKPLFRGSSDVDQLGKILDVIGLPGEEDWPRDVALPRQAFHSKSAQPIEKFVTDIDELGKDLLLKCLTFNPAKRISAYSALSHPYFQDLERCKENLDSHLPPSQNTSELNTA
T7 sequence (P30281 whole entry partner): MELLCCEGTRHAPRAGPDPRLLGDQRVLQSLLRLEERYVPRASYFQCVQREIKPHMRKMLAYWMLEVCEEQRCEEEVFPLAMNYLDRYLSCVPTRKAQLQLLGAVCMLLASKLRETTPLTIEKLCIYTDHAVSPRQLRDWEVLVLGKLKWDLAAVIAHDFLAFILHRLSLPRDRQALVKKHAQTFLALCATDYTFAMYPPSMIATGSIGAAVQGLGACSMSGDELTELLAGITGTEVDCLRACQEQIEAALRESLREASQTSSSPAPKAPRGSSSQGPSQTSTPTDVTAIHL
T25 sequence (Q15349 whole entry): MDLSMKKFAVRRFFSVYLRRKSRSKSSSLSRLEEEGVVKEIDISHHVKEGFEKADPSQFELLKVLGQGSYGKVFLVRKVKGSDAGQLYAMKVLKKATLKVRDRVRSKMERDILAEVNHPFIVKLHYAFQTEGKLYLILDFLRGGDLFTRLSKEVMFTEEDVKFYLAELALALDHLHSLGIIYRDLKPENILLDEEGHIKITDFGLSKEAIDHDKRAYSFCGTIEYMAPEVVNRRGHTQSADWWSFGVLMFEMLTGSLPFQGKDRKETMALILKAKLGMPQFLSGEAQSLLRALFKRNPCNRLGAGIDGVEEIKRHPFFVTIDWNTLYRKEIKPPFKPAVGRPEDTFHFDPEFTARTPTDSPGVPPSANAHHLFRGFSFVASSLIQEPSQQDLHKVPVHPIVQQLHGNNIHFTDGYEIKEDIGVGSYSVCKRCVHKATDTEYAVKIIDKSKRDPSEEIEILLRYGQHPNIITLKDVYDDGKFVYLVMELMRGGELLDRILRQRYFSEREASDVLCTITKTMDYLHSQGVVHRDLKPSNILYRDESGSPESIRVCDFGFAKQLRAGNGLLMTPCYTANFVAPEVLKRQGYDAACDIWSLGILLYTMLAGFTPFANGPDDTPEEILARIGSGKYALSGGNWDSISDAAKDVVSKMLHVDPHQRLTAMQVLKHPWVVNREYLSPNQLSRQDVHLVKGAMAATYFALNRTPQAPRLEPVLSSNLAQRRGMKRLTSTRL
T13 sequence (P51451 whole entry): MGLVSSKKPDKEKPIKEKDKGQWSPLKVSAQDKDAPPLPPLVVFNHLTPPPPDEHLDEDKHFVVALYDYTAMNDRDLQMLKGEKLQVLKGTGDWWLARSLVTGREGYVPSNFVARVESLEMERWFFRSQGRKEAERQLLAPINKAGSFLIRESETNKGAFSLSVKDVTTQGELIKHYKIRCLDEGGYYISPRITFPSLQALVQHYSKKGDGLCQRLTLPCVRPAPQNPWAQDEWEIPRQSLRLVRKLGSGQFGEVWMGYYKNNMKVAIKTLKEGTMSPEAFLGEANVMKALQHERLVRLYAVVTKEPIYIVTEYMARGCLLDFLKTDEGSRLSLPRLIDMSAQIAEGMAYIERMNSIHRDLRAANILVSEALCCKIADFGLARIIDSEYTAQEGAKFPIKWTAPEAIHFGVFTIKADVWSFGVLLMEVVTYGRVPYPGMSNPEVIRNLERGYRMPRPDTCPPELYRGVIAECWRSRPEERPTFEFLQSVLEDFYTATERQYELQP
T16 sequence (O00443 whole entry): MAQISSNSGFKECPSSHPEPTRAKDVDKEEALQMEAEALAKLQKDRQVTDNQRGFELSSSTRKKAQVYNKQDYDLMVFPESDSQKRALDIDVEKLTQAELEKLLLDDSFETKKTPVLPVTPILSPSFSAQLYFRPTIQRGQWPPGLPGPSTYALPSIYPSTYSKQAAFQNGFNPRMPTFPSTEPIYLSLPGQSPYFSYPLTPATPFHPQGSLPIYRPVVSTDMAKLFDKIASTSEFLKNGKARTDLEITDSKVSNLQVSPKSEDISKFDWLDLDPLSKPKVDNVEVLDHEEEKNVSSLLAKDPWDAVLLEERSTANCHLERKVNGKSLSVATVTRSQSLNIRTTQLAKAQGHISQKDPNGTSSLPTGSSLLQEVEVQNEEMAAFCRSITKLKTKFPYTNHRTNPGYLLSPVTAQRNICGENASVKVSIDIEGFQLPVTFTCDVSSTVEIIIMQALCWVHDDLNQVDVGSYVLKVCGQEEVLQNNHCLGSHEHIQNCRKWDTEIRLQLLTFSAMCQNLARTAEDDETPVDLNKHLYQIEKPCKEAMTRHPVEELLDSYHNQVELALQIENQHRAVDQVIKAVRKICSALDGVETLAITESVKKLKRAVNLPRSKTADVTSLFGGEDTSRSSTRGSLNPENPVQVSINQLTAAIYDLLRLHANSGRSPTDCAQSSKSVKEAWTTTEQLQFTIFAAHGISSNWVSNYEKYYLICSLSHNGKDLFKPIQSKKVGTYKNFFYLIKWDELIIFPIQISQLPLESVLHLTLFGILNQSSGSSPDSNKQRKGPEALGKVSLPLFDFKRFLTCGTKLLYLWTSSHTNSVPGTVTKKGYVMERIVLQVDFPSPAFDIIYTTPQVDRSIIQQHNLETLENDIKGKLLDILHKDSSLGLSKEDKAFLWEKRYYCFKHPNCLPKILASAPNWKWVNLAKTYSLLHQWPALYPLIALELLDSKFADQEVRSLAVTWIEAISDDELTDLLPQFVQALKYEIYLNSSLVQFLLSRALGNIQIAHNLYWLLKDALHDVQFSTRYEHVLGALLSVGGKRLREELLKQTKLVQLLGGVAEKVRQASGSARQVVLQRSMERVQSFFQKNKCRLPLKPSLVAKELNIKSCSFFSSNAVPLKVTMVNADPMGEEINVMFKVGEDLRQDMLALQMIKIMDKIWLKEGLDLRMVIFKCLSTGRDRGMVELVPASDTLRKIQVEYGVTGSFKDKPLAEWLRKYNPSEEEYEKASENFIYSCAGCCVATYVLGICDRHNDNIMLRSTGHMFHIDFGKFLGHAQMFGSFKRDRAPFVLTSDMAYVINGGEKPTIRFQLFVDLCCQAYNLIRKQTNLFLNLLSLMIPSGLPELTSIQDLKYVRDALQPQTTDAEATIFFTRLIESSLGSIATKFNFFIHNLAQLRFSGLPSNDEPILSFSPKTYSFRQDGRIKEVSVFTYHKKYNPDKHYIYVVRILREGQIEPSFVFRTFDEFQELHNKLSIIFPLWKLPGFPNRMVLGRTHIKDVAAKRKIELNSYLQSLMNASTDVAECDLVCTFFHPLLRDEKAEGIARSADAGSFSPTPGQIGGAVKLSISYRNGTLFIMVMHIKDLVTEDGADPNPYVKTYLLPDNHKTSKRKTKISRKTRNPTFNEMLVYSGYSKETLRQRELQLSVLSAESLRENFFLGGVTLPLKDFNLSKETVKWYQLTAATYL
T3 sequence (Q8N5S9 whole entry): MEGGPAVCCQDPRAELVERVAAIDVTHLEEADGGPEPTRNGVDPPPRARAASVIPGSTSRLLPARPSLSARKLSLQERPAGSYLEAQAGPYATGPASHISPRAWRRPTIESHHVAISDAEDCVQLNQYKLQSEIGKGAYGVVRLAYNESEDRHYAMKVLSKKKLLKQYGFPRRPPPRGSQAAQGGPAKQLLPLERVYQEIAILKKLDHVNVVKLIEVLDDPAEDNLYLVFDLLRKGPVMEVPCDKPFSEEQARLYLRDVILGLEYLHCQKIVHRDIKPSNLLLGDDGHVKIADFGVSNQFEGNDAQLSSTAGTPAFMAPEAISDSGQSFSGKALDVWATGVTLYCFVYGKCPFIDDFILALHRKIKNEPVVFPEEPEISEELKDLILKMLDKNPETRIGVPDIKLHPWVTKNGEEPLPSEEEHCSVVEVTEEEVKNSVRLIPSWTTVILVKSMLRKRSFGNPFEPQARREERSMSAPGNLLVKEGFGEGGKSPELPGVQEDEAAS
T12 sequence (Q96L34 whole entry): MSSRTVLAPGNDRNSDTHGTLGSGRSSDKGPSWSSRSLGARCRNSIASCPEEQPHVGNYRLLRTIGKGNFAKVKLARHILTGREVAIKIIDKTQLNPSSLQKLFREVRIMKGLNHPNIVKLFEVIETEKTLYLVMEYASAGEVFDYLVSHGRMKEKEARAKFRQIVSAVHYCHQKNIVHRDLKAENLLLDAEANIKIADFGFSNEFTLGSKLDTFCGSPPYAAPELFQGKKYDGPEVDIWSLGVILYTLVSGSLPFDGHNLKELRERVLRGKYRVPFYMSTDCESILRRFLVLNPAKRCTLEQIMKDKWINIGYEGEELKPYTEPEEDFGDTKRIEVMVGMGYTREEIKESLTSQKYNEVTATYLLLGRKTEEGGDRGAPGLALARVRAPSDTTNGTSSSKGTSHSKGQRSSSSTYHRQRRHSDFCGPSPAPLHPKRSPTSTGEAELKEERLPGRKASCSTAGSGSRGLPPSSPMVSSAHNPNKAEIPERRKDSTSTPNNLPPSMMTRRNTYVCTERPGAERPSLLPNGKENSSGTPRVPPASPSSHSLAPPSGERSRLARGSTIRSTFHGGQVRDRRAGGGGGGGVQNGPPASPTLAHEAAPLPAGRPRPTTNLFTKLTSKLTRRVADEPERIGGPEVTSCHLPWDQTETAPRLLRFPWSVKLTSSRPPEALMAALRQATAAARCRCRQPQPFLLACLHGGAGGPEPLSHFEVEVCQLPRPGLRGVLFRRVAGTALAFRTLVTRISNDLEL

Compound `CN(C)Cc1cccc(Nc2ncc(Cl)c(-c3csc(C(=O)NN4CCOCC4)c3)n2)c1` [SKLB-D18, 4-(5-chloro-2-((3-((dimethylamino)methyl)phenyl)amino)pyrimidin-4-yl)-N-morpholinothiophene-2-carboxamide] has an inhibition at 1 µM (IRE1(h)) of 2%, an inhibition at 1 µM (STK32B(h)) of -3% and an inhibition at 1 µM (CaMKK1(h)) of 12%. The inhibition at 1 µM (CDK9/cyclin T1(h)) was 28%, the inhibition at 1 µM (TRB2(h)) was 71% and the inhibition at 1 µM (CHK1(h)) was 36%. The inhibition at 1 µM (CDK6/cyclinD3(h)) was 47%, the inhibition at 1 µM (EphB2(h)) was -1% and the inhibition at 1 µM (TNIK(h)) was 48%. The inhibition at 1 µM (SGK(h)) was 11%, the inhibition at 1 µM (CaMKI(h)) was 16% and the inhibition at 1 µM (MARK4(h)) was 64%. For the same compound, the inhibition at 1 µM (Blk(h)) was -5%, the inhibition at 1 µM (ACK1(h)) was 14% and the inhibition at 1 µM (PI3 Kinase (p120g)(h)) was 4%. The inhibition at 1 µM (PI3KC2a(h)) was 1%, the inhibition at 1 µM (WNK1(h)) was 12% and the inhibition at 1 µM (Rsk4(h)) was 63%. The inhibition at 1 µM (ErbB2(h)) was -3%, the inhibition at 1 µM (PKAcβ(h)) was 12% and the inhibition at 1 µM (Aurora-C(h)) was 66%. It also gave an inhibition at 1 µM (DYRK1B(h)) of 67%, an inhibition at 1 µM (MRCKγ(h)) of 34% and an inhibition at 1 µM (IKKβ(h)) of 53%. It also gave an inhibition at 1 µM (Rsk3(h)) of 66%, an inhibition at 1 µM (STK32A(h)) of -3% and an inhibition at 1 µM (PKCβII(h)) of 28%. For the same compound, the inhibition at 1 µM (NIM1(h)) was 50%, the inhibition at 1 µM (IRAK4(h)) was 47% and the inhibition at 1 µM (ZAP-70(h)) was 1%. For the same compound, the inhibition at 1 µM (PKBα(h)) was 12%, the inhibition at 1 µM (FGFR2(h)) was 55% and the inhibition at 1 µM (PRK1(h)) was 73%. It also gave an inhibition at 1 µM (PrKX(h)) of 43%, an inhibition at 1 µM (NEK3(h)) of 63% and an inhibition at 1 µM (NEK9(h)) of 56%. The inhibition at 1 µM (PDHK4(h)) was 5%, the inhibition at 1 µM (PAK6(h)) was 10% and the inhibition at 1 µM (DRAK1(h)) was 44%. The inhibition at 1 µM (CK2α1(h)) was 49% and the inhibition at 1 µM (Aurora-A(h)) was 51%.

From paper PMC11842588, “A first-in-class selective inhibitor of ERK1/2 and ERK5 overcomes drug resistance with a single-molecule strategy” (Signal Transduction and Targeted Therapy, 2025)
